According to patent US7956082B2, “Indole derivative having PGD2 receptor antagonist activity” (Shionogi & Co., Ltd, priority 2005, dated 2011):
Structures can show the parent of a compound that is named as a salt.

Assays:
[1] = target: T1, DP receptor (Homo sapiens, UniProt Q13258); assay: cAMP assay with washed platelets (DP inhibitory activity in vitro); format: cell-based; details: 100 nM PGD2, cAMP by HTRF, read-out: IC50 (50% DP-inhibitory concentration in the cAMP assay)
T1 construct: endogenous in cells; host or cells: washed platelets from peripheral blood of a healthy volunteer (whole platelets in A1, platelet membrane fraction in A2)
T1 sequence (Q13258 1-359): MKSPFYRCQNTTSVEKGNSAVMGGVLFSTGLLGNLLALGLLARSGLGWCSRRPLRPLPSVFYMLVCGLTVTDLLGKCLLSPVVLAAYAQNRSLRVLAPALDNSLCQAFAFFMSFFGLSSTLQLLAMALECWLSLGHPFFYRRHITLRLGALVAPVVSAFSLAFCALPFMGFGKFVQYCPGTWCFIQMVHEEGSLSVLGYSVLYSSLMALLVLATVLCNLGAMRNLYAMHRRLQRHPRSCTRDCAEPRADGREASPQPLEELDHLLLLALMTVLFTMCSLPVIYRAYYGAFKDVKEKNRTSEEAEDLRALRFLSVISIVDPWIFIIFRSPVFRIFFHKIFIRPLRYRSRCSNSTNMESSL
Protocol: 1) Preparation of Platelet and a Method of cAMP Assay
30 ml of peripheral blood was collected from a healthy volunteer using a syringe containing one ninth amount of 3.8% sodium citrate for diagnosis. After being centrifuged at 180 g for 10 minutes at room temperature, a supernatant was collected and used as Platelet Rich Plasma (PRP). The resulting PRP was washed with wash buffer and centrifuged three times (Washed Platelet: WP) and platelets were counted by a microcell counter. WP was added to a plate in amount of 1.5×10^8/assay and the plate was treated, with 3-isobutyl-1-methylxanthin (IBMX; 0.5 mM) for 5 minutes. A reaction was initiated by adding 100 nM of PGD2 5 min after an addition of a test compound. The reaction was terminated with an addition of 1N HCl after 2 minutes and the cells were destructed using 12% triton X-100. An amount of cAMP in the supernatant was assayed by Homogeneous […] (HTRF)

[2] = target: T1, DP receptor; assay: Receptor binding assay, [3H]-PGD2, platelet membrane; details: [3H]-PGD2, human platelet membrane, on ice 2 hours
Protocol: 2) Receptor Binding Assay A prepared WP was homogenated and a membrane fraction was collected with high-speed centrifugation. A compound of the present invention or a reference compound A(No. IC-73 in WO 2003/097598) was added to the plate and [^3H]-PGD2 was also added. A platelet membrane, a protein concentration is 2 mg/mL, was added and mixed in the plate, and placed on ice for 2 hours. The reaction solution was transferred to a low protein-adsorptive filter and washed with a wash solution eight times using a cell harvester. After the final washing, water was removed sufficiently, and micoscinti was added. DP inhibitory activity was investigated by measuring [^3H] by using Micro Beta.

[3] = test system: Brown Norway (BN) Rats; assay: Test using OVA asthma model of rat; format: in vivo; details: 10 mg/kg p.o. once a day for three days, vs control group; for inhibition rate (%) increased hyperresponsive airway: AUC of acetylcholine response curve; for inhibition rate (%) mucus-secretion: mucin in airway lavage fluid; for inhibition rate (%) infiltration of inflammatory cells: total cell number in bronchoalveolar washings
Protocol: Brown Norway (BN) Rats were sensitized by i.p. administration of 0.1 mg/mL of ovalbumin (OVA) and 1 mg of aluminum hydroxide gel. A solution of 1% OVA was aerosolized by ultrasonic nebulizer (NE-U17) and the rats were subjected to inhalation exposure of the aerosol for 30 minutes in an exposing chamber 12, 19, 26 and 33 days after the sensitization. One hour before the 4th exposure of the antigen, compounds of the present invention were administered in a dose of 10 mg/kg p.o. once a day for three days consecutively. In a control group, 0.5% of methyl cellulose was administered in place of the compound of the present invention.
Under pentobarbital anesthesia (80 mg/kg, i.p.), acetylcholine (3.9, 7.8, 15.6, 31.3, 62.5, 125, 250 and 500 μg/kg) was injected to jugular vein of the rats successively from a lower dose at intervals of 5 minutes three days after the fourth exposure to the antigen, and immediate contractile reaction of airways (an increase of insufflation pressure) was measured by a modified method of Konnzett & Rössler. Inhibition rate of increased hyperresponsive airway against the control group was calculated based on area under curve (AUC) obtained from concentration-response curve of acetylcholine.
After the measurement of increased hyperresponsive airway was; completed, bronchoalveoli of the rats were washed with 5 mL of saline three times. Total cell number in the washings was counted by a hemacytometer under light microscope, and inhibition rates of infiltration of inflammatory cells against the control group were calculated. Further, muchin in the airway lavage fluid was measured by ELIZA method using jacalin, a muchin-binding lectin, and the inhibition rates of mucus-secretion against the control group were calculated.

Structure (SMILES): COc1ccc(-c2ccc3c(C4CCN(S(=O)(=O)c5ccc(OC(C)C)cc5)C4)cn(CC(=O)O)c3c2)cc1 (stereo not drawn) [Compound I-74]
- IC50 [1]: 1.9 nM

Structure (SMILES): CC(C)Oc1ccc(S(=O)(=O)N2CCC(c3cn(CC(=O)O)c4cc(-c5ccncc5)ccc34)C2)cc1.Cl (stereo not drawn) [Compound I-75]
- IC50 [1]: 1.7 nM
- Ki [2]: 0.66 nM
- inhibition rate (%) increased hyperresponsive airway [3]: 58%
- inhibition rate (%) mucus-secretion [3]: 77%
- inhibition rate (%) infiltration of inflammatory cells [3]: 71%

Structure (SMILES): CC(C)Oc1ccc(S(=O)(=O)N2CCC(c3cn(CC(=O)O)c4ccc(F)cc34)CC2)cc1 [Compound I-23]
- IC50 [1]: 1.9 nM
- Ki [2]: 2.2 nM

Structure (SMILES): CC(C)Oc1ccc(S(=O)(=O)N2CCC(c3cn(CC(=O)O)c4cc(F)ccc34)C2)cc1 (stereo not drawn) [Compound I-34]
- IC50 [1]: 2.3 nM
- Ki [2]: 3.4 nM

Structure (SMILES): CC(C)Oc1ccc(S(=O)(=O)N2CCC(c3cn(CC(=O)O)c4cc(-c5ncco5)ccc34)CC2)cc1 [Compound I-104]
- IC50 [1]: 1.2 nM
- Ki [2]: 1.3 nM

Structure (SMILES): CC(C)Oc1ccc(S(=O)(=O)N2CCC(c3cn(CC(=O)O)c4cc(-c5nccs5)ccc34)CC2)cc1 [Compound I-100]
- IC50 [1]: 1.9 nM

Structure (SMILES): CC(C)Oc1ccc(S(=O)(=O)N2CCC(c3cn(CC(=O)O)c4cc(C#N)ccc34)CC2)cc1 [Compound I-98]
- IC50 [1]: 0.97 nM

Structure (SMILES): CCOc1ccc(S(=O)(=O)N2CCC(c3cn(CC(=O)O)c4ccc(Cl)cc34)C2)cc1 (stereo not drawn) [Compound I-38]
- IC50 [1]: 2 nM
- Ki [2]: 4.7 nM

Structure (SMILES): CC(C)Oc1ccc(S(=O)(=O)N2CC[C@@H](c3cn(CC(=O)O)c4ccc(Cl)cc34)C2)cc1 (as salt: TFA) [Compound I-65]
- melting point: 167 °C

Structure (SMILES): COc1cccc(-c2ccc3c(C4CCN(S(=O)(=O)c5ccc(OC(C)C)cc5)C4)cn(CC(=O)O)c3c2)c1 (stereo not drawn) [Compound I-81]
- IC50 [1]: 0.86 nM

Structure (SMILES): CC(C)Oc1ccc(S(=O)(=O)N2CC[C@@H](c3cn(CC(=O)O)c4cc(-c5nccs5)ccc34)C2)cc1 [Compound I-96]
- IC50 [1]: 0.23 nM
- Ki [2]: 0.21 nM

Structure (SMILES): CC(C)Oc1ccc(S(=O)(=O)N2CC[C@H](c3cn(CC(=O)O)c4ccc(Cl)cc34)C2)cc1 (as salt: TFA) [Compound I-62]
- melting point: 188 to 189 °C

Structure (SMILES): CC(C)Oc1ccc(S(=O)(=O)N2CC[C@@H](c3cn(CC(=O)O)c4ccc(Cl)cc34)C2)cc1 [Compound I-65]
- IC50 [1]: 0.34 nM
- Ki [2]: 2.3 nM
- inhibition rate (%) increased hyperresponsive airway [3]: 62%
- inhibition rate (%) mucus-secretion [3]: 40%
- inhibition rate (%) infiltration of inflammatory cells [3]: 61%

Structure (SMILES): CC(C)Sc1ccc(S(=O)(=O)N2CCC(c3cn(CC(=O)O)c4ccc(Cl)cc34)C2)cc1 (stereo not drawn) [Compound I-59]
- IC50 [1]: 1.1 nM

Structure (SMILES): CC(C)Oc1ccc(S(=O)(=O)N2CCC(c3cn(CC(=O)O)c4cc(-c5ccc(C#N)cc5)ccc34)C2)cc1 (stereo not drawn) [Compound I-72]
- IC50 [1]: 2.2 nM

Structure (SMILES): CC(C)Oc1ccc(S(=O)(=O)N2CCC(c3cn(CC(=O)O)c4cc(-c5nccs5)ccc34)C2)cc1 (stereo not drawn) [Compound I-93]
- IC50 [1]: 0.5 nM
- Ki [2]: 0.24 nM

Structure (SMILES): CC(C)Oc1ccc(S(=O)(=O)N2CCC(c3cn(CC(=O)O)c4ccc(Cl)cc34)CC2)cc1 [Compound I-3]
- IC50 [1]: 1.3 nM
- Ki [2]: 1.3 nM

Structure (SMILES): CC(C)Oc1ccc(S(=O)(=O)N2CCC(c3cn(CC(=O)O)c4cc(-c5ccco5)ccc34)C2)cc1 (stereo not drawn) [Compound I-77]
- IC50 [1]: 0.62 nM
- Ki [2]: 0.37 nM
- inhibition rate (%) increased hyperresponsive airway [3]: 110%
- inhibition rate (%) mucus-secretion [3]: 72%
- inhibition rate (%) infiltration of inflammatory cells [3]: 28%

Structure (SMILES): CC(C)Oc1ccc(S(=O)(=O)N2CCC(c3cn(CC(=O)O)c4c(Cl)cccc34)C2)cc1 (stereo not drawn) [Compound I-19]
- IC50 [1]: 1.3 nM
- Ki [2]: 4.2 nM

Structure (SMILES): CC(C)Oc1ccc(S(=O)(=O)N2CCC(c3cn(CC(=O)O)c4cc(Cl)ccc34)C2)cc1 (stereo not drawn) [Compound I-14]
- IC50 [1]: 0.98 nM
- Ki [2]: 2.1 nM
- inhibition rate (%) increased hyperresponsive airway [3]: 31%
- inhibition rate (%) mucus-secretion [3]: 55%
- inhibition rate (%) infiltration of inflammatory cells [3]: 57%

Structure (SMILES): CC(C)Oc1ccc(S(=O)(=O)N2CCC(c3cn(CC(=O)O)c4cc(N5CCCC5=O)ccc34)C2)cc1 (stereo not drawn) [Compound I-107]
- IC50 [1]: 2.3 nM

Structure (SMILES): CC(C)Oc1ccc(S(=O)(=O)N2CCC(c3cn(CC(=O)O)c4cc(Br)ccc34)C2)cc1F (stereo not drawn) [Compound I-86]
- IC50 [1]: 1.3 nM

Structure (SMILES): CC(C)Oc1ccc(S(=O)(=O)N2CCC(c3cn(CC(=O)O)c4ccc(Cl)cc34)C2)cc1 (stereo not drawn) [Compound I-10]
- IC50 [1]: 1 nM
- Ki [2]: 2.5 nM

Structure (SMILES): CC(C)Oc1ccc(S(=O)(=O)N2CC[C@@H](c3cn(CC(=O)O)c4cc(Cl)ccc34)C2)cc1 [Compound I-79]
- IC50 [1]: 0.19 nM
- Ki [2]: 0.91 nM

Structure (SMILES): CC(C)Oc1ccc(S(=O)(=O)N2CCC(c3cn(CC(=O)O)c4cc(-c5ccoc5)ccc34)C2)cc1 (stereo not drawn) [Compound I-78]
- IC50 [1]: 1.2 nM

Structure (SMILES): CC(C)Oc1ccc(S(=O)(=O)N2CC[C@@H](c3cn(CC(=O)O)c4cc(-c5ncco5)ccc34)C2)cc1 [Compound I-103]
- IC50 [1]: 0.14 nM
- Ki [2]: 20 nM
- inhibition rate (%) increased hyperresponsive airway [3]: 71%
- inhibition rate (%) mucus-secretion [3]: 52%
- inhibition rate (%) infiltration of inflammatory cells [3]: 58%

Structure (SMILES): CC(C)Oc1ccc(S(=O)(=O)N2CCC(c3cn(CC(=O)O)c4cc(-c5nnco5)ccc34)C2)cc1 (stereo not drawn) [Compound I-88]
- IC50 [1]: 1.2 nM
- Ki [2]: 2.5 nM

Structure (SMILES): CC(C)Oc1ccc(S(=O)(=O)N2CCC(c3cn(CC(=O)O)c4c(Cl)cc(Cl)cc34)C2)cc1 (stereo not drawn) [Compound I-45]
- IC50 [1]: 1.5 nM
- Ki [2]: 19 nM

Structure (SMILES): CC(C)Oc1ccc(S(=O)(=O)N2CCC(c3cn(CC(=O)O)c4cc(-c5nncs5)ccc34)CC2)cc1 [Compound I-102]
- IC50 [1]: 0.56 nM

Structure (SMILES): CC(C)Oc1ccc(S(=O)(=O)N2CC[C@@H](c3cn(CC(=O)O)c4cc(-c5ccco5)ccc34)C2)cc1 [Compound I-101]
- IC50 [1]: 0.27 nM
- Ki [2]: 0.21 nM

Structure (SMILES): CC(C)Oc1ccc(S(=O)(=O)N2CCC(c3cn(CC(=O)O)c4cc(N5CCOCC5)ccc34)C2)cc1.Cl (stereo not drawn) [Compound I-82]
- inhibition rate (%) increased hyperresponsive airway [3]: 59%
- inhibition rate (%) mucus-secretion [3]: 47%
- inhibition rate (%) infiltration of inflammatory cells [3]: 35%

Structure (SMILES): CC(C)Oc1ccc(S(=O)(=O)N2CCC(c3cn(CC(=O)O)c4cc(-c5ccsc5)ccc34)C2)cc1 (stereo not drawn) [Compound I-67]
- IC50 [1]: 1.4 nM

Structure (SMILES): CC(C)Oc1ccc(S(=O)(=O)N2CCC(c3cn(CC(=O)O)c4cc(-c5cccs5)ccc34)C2)cc1 (stereo not drawn) [Compound I-66]
- IC50 [1]: 1.9 nM

Structure (SMILES): CC(C)Oc1ccc(S(=O)(=O)N2CCC(c3cn(CC(=O)O)c4cc(Br)ccc34)C2)cc1 (stereo not drawn) [Compound I-60]
- IC50 [1]: 0.73 nM
- Ki [2]: 3.5 nM

Structure (SMILES): CC(C)Oc1ccc(S(=O)(=O)N2CCC(c3cn(CC(=O)O)c4cc(-c5ccc6c(c5)OCO6)ccc34)C2)cc1 (stereo not drawn) [Compound I-80]
- IC50 [1]: 1.4 nM

Structure (SMILES): CC(C)Oc1ccc(S(=O)(=O)N2CCC(c3cn(CC(=O)O)c4ccc(F)cc34)C2)cc1 (stereo not drawn) [Compound I-9]
- IC50 [1]: 2.3 nM
- Ki [2]: 4.5 nM

Structure (SMILES): CC(C)Oc1ccc(S(=O)(=O)N2CCC(c3cn(CC(=O)O)c4cc(-c5cccc(C#N)c5)ccc34)C2)cc1 (stereo not drawn) [Compound I-73]
- IC50 [1]: 2 nM

Structure (SMILES): CC(C)Oc1ccc(S(=O)(=O)N2CCC(c3cn(CC(=O)O)c4cc(-c5ccccn5)ccc34)CC2)cc1 [Compound I-99]
- IC50 [1]: 1.9 nM
